Data taken from PMC12299890 (Pharmaceuticals, 2025).

Assay: Serum concentration and pharmacokinetics of SCI after oral gavage in Wistar rats
Type: in vivo, Wistar rat
Method: All procedures were performed according to the Local Ethical Committee of Experiments on Animals guidelines in Olsztyn, Poland. The experiment was conducted in the same way as described by Antonowski et al.. Briefly, the experiment was performed on male Wistar rats (n = 6). Rats were maintained in ventilated rooms under a standard day photoperiod (12:12 h light–dark) as well as with lights on from 700 to 1900 h at 21 °C. All rats had free access to food and water. At 42 days of age, rats were randomized into experimental groups (Table 1 and Table 4).
Before the administration of cyclitol (10 mg/kg), the rats were fasting for 12 h (Table 1). […] Access to water was unlimited during the experiments. The study group (n = 6) was divided into two subgroups (n = 3 rats per subgroup). This practice allows for the use of only 6 rats for the entire experiment in accordance with the 3 Rs principle. Rats received the compound at a dose of 10 mg/kg body weight. Rats were weighed before starting the compound administration. Cyclitol was administered to the rats from the study group using a stainless-steel gastric tube with a ball tip (manufacturer—Agnthos, curved gastric tube, 16G, 3 mm tip, 75 mm). Cyclitol was dissolved in distilled water to a maximum volume of 1 mL. The prepared solution was administered to the animal.
Blood samples were collected into Eppendorf tubes and were centrifuged at 2500× g for 10 min at 8 °C the following day. Blood was harvested from the tail at a specific time. […] Serum was stored at −80 °C for subsequent analyses.
The analysis is described in detail by Antonowski and co-workers. Briefly, the first step was to remove the protein, then concentrate the sample in a speed vacuum evaporator to dryness. Next, samples were analyzed using the high-resolution gas chromatography method. We used a gas chromatograph GC2010Plus (Shimadzu, Tokyo, Japan) with a capillary column ZEBRON ZB-1 (15 m length, 0.25 mm diameter, and 0.1 μm film thickness, Phenomenex, Torrance, CA, USA). Helium was used as a carrier gas (at a flow rate of 1.18 mL min^−1). […] Finally, scyllo-inositol was quantified by using a standard.
The PK parameters were calculated using PK Solver. PKSolver is an add-in program for pharmacokinetic and pharmacodynamic data analysis […]. […] The area under the drug concentration–time curve from time zero to the time of the last quantifiable concentration (AUClast) was calculated using the trapezoidal rule. The volume over which the drug was distributed (Vd) and clearance (CL) were conducted by PK Solver. […] Nevertheless, we estimated K by log-linear regression analysis on data points on the terminal log-linear phase. Noncompartmental analysis is generally the preferred methodology to use in that it requires fewer assumptions than model-based approaches. We presented the results for individual rats, subgroups of rats, and for all subjects studied. The content of scyllo-inositol was calculated from the standard curves of appropriate components. To determine the terminal phase, […] was sufficient.
An analysis of all parameters was carried out with GraphPad Prism software (Version 10 Graph Pad Software Inc., La Jolla, CA, USA). Data are expressed as means ± SEM or individual data. Briefly, AUClast was calculated using the trapezoidal method. The T0.5 of oral administration was calculated as 0.693/K.

[1] = Mean of rats 1–3 ± SEM, serum, oral 10 mg/kg

CL [1]: 0.112 ± 0.008 (95%CI: 0.145–0.079) L/h
Vd [1]: 4.182 ± 2.287 (95%CI: 14.02–(−5.656)) L
CL (Mean of rats 4–6 ± SEM, serum, oral 10 mg/kg): 0.216 ± 0.055 (95%CI: 0.451–(−0.02)) L/h
CL (Rat No 1, serum, oral 10 mg/kg): 0.1 L/h
Vd (Rat No 1, serum, oral 10 mg/kg): 0.039 L
CL (Rat No 2, serum, oral 10 mg/kg): 0.11 L/h
Vd (Rat No 2, serum, oral 10 mg/kg): 7.93 L
CL (Rat No 3, serum, oral 10 mg/kg): 0.126 L/h
Vd (Rat No 3, serum, oral 10 mg/kg): 4.578 L
CL (Rat No 4, serum, oral 10 mg/kg): 0.325 L/h
Vd (Rat No 4, serum, oral 10 mg/kg): 0.358 L
CL (Rat No 5, serum, oral 10 mg/kg): 0.16 L/h
Vd (Rat No 5, serum, oral 10 mg/kg): 0.9967 L
CL (Rat No 6, serum, oral 10 mg/kg): 0.162 L/h
Vd (Rat No 6, serum, oral 10 mg/kg): 0.566 L
Concentration of SCI in serum (Rat No. 1, time 0 h, oral 10 mg/kg): BLQ
Concentration of SCI in serum (Rat No. 1, time 0.25 h, oral 10 mg/kg): BLQ
Concentration of SCI in serum (Rat No. 1, time 12 h, oral 10 mg/kg): BLQ
Concentration of SCI in serum (Rat No. 1, time 24 h, oral 10 mg/kg): BLQ
Concentration of SCI in serum (Rat No. 2, time 0 h, oral 10 mg/kg): BLQ
Concentration of SCI in serum (Rat No. 2, time 0.25 h, oral 10 mg/kg): BLQ
Concentration of SCI in serum (Rat No. 2, time 12 h, oral 10 mg/kg): BLQ
Concentration of SCI in serum (Rat No. 2, time 24 h, oral 10 mg/kg): BLQ
Concentration of SCI in serum (Rat No. 3, time 0 h, oral 10 mg/kg): BLQ
Concentration of SCI in serum (Rat No. 3, time 0.25 h, oral 10 mg/kg): BLQ
Concentration of SCI in serum (Rat No. 3, time 12 h, oral 10 mg/kg): BLQ
Concentration of SCI in serum (Rat No. 3, time 24 h, oral 10 mg/kg): BLQ
Concentration of SCI in serum (Rat No. 4, time 36 h, oral 10 mg/kg): BLQ
Concentration of SCI in serum (Rat No. 4, time 48 h, oral 10 mg/kg): BLQ
Concentration of SCI in serum (Rat No. 5, time 36 h, oral 10 mg/kg): BLQ
Concentration of SCI in serum (Rat No. 5, time 48 h, oral 10 mg/kg): BLQ
Concentration of SCI in serum (Rat No. 6, time 36 h, oral 10 mg/kg): BLQ
Concentration of SCI in serum (Rat No. 6, time 48 h, oral 10 mg/kg): BLQ
concentration at 0 min (male, Wistar, rat, serum, oral, 10 mg/kg, Mean concentration of SCI in serum, at the point of administration (0 min), rats 1–3): 0 ng/mL
concentration at 0.5 h (male, Wistar, rat, serum, po, 10 mg/kg, Concentration of SCI in serum, Rat No. 1, oral 10 mg/kg): 1000 ng/mL
concentration at 1 h (male, Wistar, rat, serum, po, 10 mg/kg, Concentration of SCI in serum, Rat No. 1, time 1 h, oral 10 mg/kg): 1600 ng/mL
concentration at 1.5 h (male, Wistar, rat, serum, po, 10 mg/kg, Concentration of SCI in serum, Rat No. 1, time 1.5 h, oral 10 mg/kg): 7200 ng/mL
concentration at 0.5 h (male, Wistar, rat, serum, po, 10 mg/kg, Concentration of SCI in serum, Rat No. 2, oral 10 mg/kg): 4600 ng/mL
concentration at 1 h (male, Wistar, rat, serum, po, 10 mg/kg, Concentration of SCI in serum, Rat No. 2, time 1 h, oral 10 mg/kg): 5600 ng/mL
concentration at 1.5 h (male, Wistar, rat, serum, po, 10 mg/kg, Concentration of SCI in serum, Rat No. 2, time 1.5 h, oral 10 mg/kg): 6200 ng/mL
concentration at 0.5 h (male, Wistar, rat, serum, po, 10 mg/kg, Concentration of SCI in serum, Rat No. 3, oral 10 mg/kg): 5600 ng/mL
concentration at 1 h (male, Wistar, rat, serum, po, 10 mg/kg, Concentration of SCI in serum, Rat No. 3, time 1 h, oral 10 mg/kg): 6800 ng/mL
concentration at 1.5 h (male, Wistar, rat, serum, po, 10 mg/kg, Concentration of SCI in serum, Rat No. 3, time 1.5 h, oral 10 mg/kg): 4400 ng/mL
concentration at 2 h (male, Wistar, rat, serum, po, 10 mg/kg, Concentration of SCI in serum, Rat No. 4, time 2 h, oral 10 mg/kg): 3200 ng/mL
concentration at 4 h (male, Wistar, rat, serum, po, 10 mg/kg, Concentration of SCI in serum, Rat No. 4, time 4 h, oral 10 mg/kg): 600 ng/mL
concentration at 8 h (male, Wistar, rat, serum, po, 10 mg/kg, Concentration of SCI in serum, Rat No. 4, time 8 h, oral 10 mg/kg): 400 ng/mL
concentration at 2 h (male, Wistar, rat, serum, po, 10 mg/kg, Concentration of SCI in serum, Rat No. 5, time 2 h, oral 10 mg/kg): 3800 ng/mL
concentration at 4 h (male, Wistar, rat, serum, po, 10 mg/kg, Concentration of SCI in serum, Rat No. 5, time 4 h, oral 10 mg/kg): 6100 ng/mL
concentration at 8 h (male, Wistar, rat, serum, po, 10 mg/kg, Concentration of SCI in serum, Rat No. 5, time 8 h, oral 10 mg/kg): 200 ng/mL
concentration at 2 h (male, Wistar, rat, serum, po, 10 mg/kg, Concentration of SCI in serum, Rat No. 6, time 2 h, oral 10 mg/kg): 5400 ng/mL
concentration at 4 h (male, Wistar, rat, serum, po, 10 mg/kg, Concentration of SCI in serum, Rat No. 6, time 4 h, oral 10 mg/kg): 3600 ng/mL
concentration at 8 h (male, Wistar, rat, serum, po, 10 mg/kg, Concentration of SCI in serum, Rat No. 6, time 8 h, oral 10 mg/kg): 400 ng/mL
concentration at 30 min (male, Wistar, rat, serum, po, 10 mg/kg, Mean concentration of SCI in serum, 30 min after oral 10 mg/kg, mean of rats 1–3): 3730 ng/mL
concentration at 1 h (male, Wistar, rat, serum, po, 10 mg/kg, Mean concentration of SCI in serum, 1 h after oral 10 mg/kg, mean of rats 1–3): 4670 ng/mL
concentration at 1.5 h (male, Wistar, rat, serum, po, 10 mg/kg, Mean concentration of SCI in serum, 1.5 h after oral 10 mg/kg, mean of rats 1–3): 5930 ng/mL
concentration at 2 h (male, Wistar, rat, serum, po, 10 mg/kg, Mean concentration of SCI in serum, 2 h after oral 10 mg/kg, mean of rats 4–6): 4130 ng/mL
concentration at 4 h (male, Wistar, rat, serum, po, 10 mg/kg, Mean concentration of SCI in serum, 4 h after oral 10 mg/kg, mean of rats 4–6): 3430 ng/mL
concentration at 8 h (male, Wistar, rat, serum, po, 10 mg/kg, Mean concentration of SCI in serum, 8 h after oral 10 mg/kg, mean of rats 4–6): 330 ng/mL
concentration at 12 h (male, Wistar, rat, serum, po, 10 mg/kg, Mean concentration of SCI in serum, 12 h after oral 10 mg/kg, rats 1–3): 0 ng/mL
Compound: O[C@H]1[C@H](O)[C@@H](O)[C@H](O)[C@@H](O)[C@@H]1O [SCI, scyllo-inositol]
